According to patent US8597646B2, “Methods and compositons featuring TGF-beta antagonists for the treatment of marfan syndrome and associated disorders” (The Johns Hopkins University, priority 2005, dated 2013):
Entries after “also recorded” stand apart in the source; their conditions may differ.

Experiments:
Type in all cases: in vivo, mouse
[1] = test system: TGFβ signaling cascade (TSP1, pSmad2, periostin); assay: Immunofluorescent analysis of proteins downstream of angiotensin II type 1 receptor in mdx muscle; conditions: monopotassium salt
Method: (§1) Immunofluorescent studies were performed as previously described (Cohn, R. D. et al. (2002) Cell 110, 639-48). […] The following antibodies were used in this study: goat polyclonal anti-pSmad 2/3, rabbit polyclonal anti c-met and rabbit polyclonal anti-myogenin (all from Santa Cruz Biotechnology Inc.); rabbit polyclonal anti-pSmad2 (#3104, Cell Signal) rat polyclonal anti-lamininyl, rabbit polyclonal anti-dystrophin, rabbit polyclonal antithrombospondin-1 and rabbit polyclonal anti-periostin (all from Abcam); rabbit polyclonal anti-fibrillin-1 (pAb 9543) (Judge, D. P. et al. (2004) J Clin Invest 114, 172-81); goat polyclonal anti-vimentin (Sigma) and, mouse monoclonal anti-beta-sarcoglycan mouse monoclonal anti-developmental myosin (Novocastra). Anti a-dystroglycan antibody IIH6 was generously supplied by Dr. Kevin Campbell, Iowa. Secondary Alexa fluor donkey anti-rabbit, anti-rat, anti mouse IgM and IgG1 and anti-goat conjugated antibodies (Molecular probes) were applied for 1 hour at room temperature. Nuclei were stained with DAPI for 5 minutes, and inverted coverslips were mounted onto glass slides using Cytoseal (Vector Laboratories).
It has recently been shown that thrombospondin-1 (TSP1) acts as a potent mediator of angiotensin II induced TGF-beta activation via AT I R (Zhou Y, et al. (2006) Biochem Biophys Res Commun. 339, 633-641). […] Therefore, the expression of dystrophin, a-dystroglycan and R-sarcoglycan in losartan-treated and untreated mdx mice was investigated.

C1039G/+ mice = assay: Aortic wall histology (elastic matrix architecture) in treated C1039G/+ mice; conditions: 4 months of treatment
Fbn1mgR/mgR mice = assay: Forelimb grip strength and fatigue in Fbn1mgR/mgR mice; conditions: 5 months of losartan, untreated 28±2.5, wild-type 3±0.8
Method: (§2) Mice were continued on oral therapy for 6 months and sacrificed. […] Age-matched wild-type and mdx mice (placebo-treated) served as a control group. After 6 months of treatment, forelimb and hindlimb grip strength was assessed using an automated grip strength meter (Columbus Instruments, Columbus, Ohio). The experiments for forelimb and hindlimb grip strength testing were conducted at different days allowing for a minimum recovery period of 10 days. Total peak force (in Newtons) was determined by an electronic strain gauge as previously described and corrected for body weight (Wagner, K. R., et al. (2002) Ann Neurol 52, 832-6). Five measurements within 2 minutes were taken from each animal. The three highest measurements for each animal were averaged to give the strength score. The degree of fatigue was calculated by comparing the first two pulls to the last two pulls with the decrement between pulls 1+2 and pulls 4+5 providing a measure of fatigue. Similarly, functional measurements were performed in 6 month old fibrillin-1 deficient mice (Fbn1^mgR) (Pereira, L. et al. (1997) Nat Genet. 17, 218-22) after 5 months of treatment.

[2] = test system: TGFβ signaling (pSmad2/3, periostin); assay: Immunofluorescence of TGFβ signaling markers (pSmad2/3, periostin, TSP1) in skeletal muscle of fibrillin-1 deficient mice
Method: as §1
Skeletal muscle from Fbn1^C1039G/+ mice was assessed for increased TGFβ signaling by immunohistochemical staining for phosphorylated Smad2/3 (pSmad2/3). […]

Fbn1C1039G/+ mice [3] = assay: Lung distal airspace caliber (mean linear intercept) in Fbn1C1039G/+ mice treated postnatally with losartan; conditions: for Distal airspace caliber / alveolar septation, in words: postnatal losartan, monopotassium salt
Source text: This abnormality correlated with increased TGF-β signaling and was prevented by prenatal administration of TGF-β NAb.

Fbn1C1039G/+ mice [4] = assay: Prenatal treatment with losartan and propranolol, aorta of Fbn1C1039G/+ mice; conditions: prenatal start
Source text: Treatment of the mothers continued throughout lactation and was maintained in the pups after weaning. Mice were killed at 10 months of age. […] The average aortic wall thickness for untreated wild-type animals was smaller than that in placebo-treated Fbn1C1039G/+ mice (P<0.0001) but was indistinguishable from that in losartan-treated Fbn1C1039G/+ mice (P=0.24, FIG. 20E).

mdx mice = assay: Long-term losartan in mdx mice: fibrosis and centrally located nuclei in diaphragm and gastrocnemius
Method: as §2
For morphometric analyses, skeletal muscle was flash frozen in cooled isopentane and mounted in Tragacanth (Sigma Aldrich, USA). Subsequently, 10 μm sections were stained with hematoxylin and eosin. Muscle fibers were counted in a defined area (9 mm^2) of the tibialis anterior muscle of 10-day-old wild-type (n=3) and Fbn1C1039G/C1039G mice (n=6) and fiber diameter was determined by measuring the shortest fiber axis within cross-sections of the tibialis anterior muscle, counting a total of 850-1500 fibers. The cross sectional area of undamaged and regenerating myofibers of the tibialis anterior muscle from wild-type and Fbn1^C1039G/+ mice was expressed as a distribution of the percentage of the total number of myofibers analyzed (850-1500) (Horsley, V. et al (2003) Cell 113, 483-94). Sections of skeletal muscle were taken along the same anatomical region of the mid-belly of the tibialis anterior muscle. The number of c-met, M-cadherin- and myogeninpositive cells in 50 fields of the tibialis anterior muscle mid-belly area was scored using the x40 objective. At least six animals per genotype were scored and all analyses were performed by investigators blinded to genotype and treatment group. All images were taken using an Eclipse E400 microscope (Nikon Inc.) and cross-sectional area measurements were determined using IPLAB software (Scanalytics, Fairfax, Va.). Neonatal myosin-positive fibers after cardiotoxin challenge were quantified by counting 900-1240 fibers per toxin-challenged muscle (n=4). For quantification of fibrotic tissue formation in toxin challenged mice (n=4), immunofluorescent staining for vimentin was performed. Five sections throughout the entire tibialis anterior muscle were analyzed at low magnification and vimentin positive areas were calculated as a percentage of the total muscle area using the NIH Scion image software, public domain. Similarly, van-Gieson and vimentin stained sections were used to delineate the percentage of fibrotic versus total muscle area in diaphragm and gastrocnemius of long-term losartan-treated, placebo-treated mdx and wild-type mice (n=6 each group) using the NIH Scion software. For evaluation of percent centrally located nuclei a total of 1100-1300 muscle fibers per diaphragm of each mouse (n=6, each group) and a total of 1900-2200 muscle fibers per gastrocnemius of each mouse (n=6, each group) were calculated.

[5] = 10 months of treatment, monopotassium salt

SMILES: CCCCc1nc(Cl)c(CO)n1Cc1ccc(-c2ccccc2-c2nnn[nH]2)cc1.[K] [losartan, 2-butyl-4-chloro-1-[p-(o-1H-tetrazol-5-ylphenyl)benzyl]imidazole-5-methanol monopotassium salt]
- Expression of thrombospondin-1 (TSP1) ([1]; mdx diaphragm and other muscles): greatly reduced expression of TSP1
- Dystrophin, a-dystroglycan, sarcoglycan expression / ubiquitin mediated proteolysis ([1]; mdx mice): did not have any impact; also recorded: absent
- Nuclear accumulation of pSmad2 and sarcolemmal expression of periostin ([1]; mdx mice): did not show any significant nuclear accumulation of pSmad2 or sarcolemmal expression of periostin; also recorded: diminished
- Elastic matrix architecture / histologic parameters of the aorta (C1039G/+ mice): normalized
- Fatigue (Fbn1mgR/mgR mice): 9%±1.8
- Nuclear pSmad2/3 and sarcolemmal periostin in uninjured skeletal muscle ([2]; Fbn1C1039G/+ mice, steady state): abrogation of TGFβ signaling
- Expression of thrombospondin-1 (TSP1) and periostin in skeletal muscle ([2]; losartan-treated fibrillin-1 deficient mice): Decreased expression
- Mean linear intercept (Fbn1C1039G/+ mice [3]; losartan from 7 weeks of age, 6 months, placebo 84.3±15, wild-type 41.3±5): 53.9±12 μm
- Distal airspace caliber / alveolar septation, in words (Fbn1C1039G/+ mice [3]; listed as Losartan): rescued; also recorded: normalization of the caliber of the distal airspace
- Distal airspace caliber / alveolar septation, in words (Fbn1C1039G/+ mice [3]): reduced
- Aortic dilatation (Fbn1C1039G/+ mice [4]; 10 months): indistinguishable from wild-type littermates
- Aortic wall architecture score (Fbn1C1039G/+ mice [4]; [5]): normalized; also recorded: improvement
- Average aortic wall thickness (Fbn1C1039G/+ mice [4]; [5]): indistinguishable; also recorded: full normalization of wall thickness
- Muscle fibers containing centrally located nuclei, diaphragm and gastrocnemius, in words (mdx mice; 6 months of losartan): increased percentage
- Centrally located nuclei, gastrocnemius (mdx mice; 6 months of losartan, mdx 25±5, wild-type 2±0.5): 36%±+6
- Fibrotic area, diaphragm (mdx mice; 6 months of losartan, mdx 32±5, wild-type 4±1): 18%±4
- Percentage of centrally located nuclei, diaphragm (mdx mice; 6 months of losartan, mdx 35±5, wild-type 2±0.5): 48%±6
- Fibrosis, gastrocnemius (mdx mice; 6 months of losartan, mdx 75±6.4, wild-type 4±2): 89%±5.8
- Myopathic disease progression / steady-state architecture in mdx mice (mdx mice; long-term losartan, 9 month-old mdx mice, monopotassium salt): significant attenuation of disease progression; also recorded: improved steady-state architecture; also recorded: attenuates myopathic disease progression
